From US9206200B2, “N-linked lactam M1 receptor positive allosteric mogulators” (Merck Sharp & Dohme Corp., priority 2011, dated 2015)
Like-named read-outs stand apart in the source and are kept apart here.

Biological target: T1, acetylcholine muscarinic M1 receptor (Homo sapiens, UniProt P11229)
T1 construct: expressed in transfected cells; host or cells: CHOnfat cells (CHO cells with an NFAT reporter) expressing hM1, kept under Geneticin selection
T1 sequence (P11229 1-460): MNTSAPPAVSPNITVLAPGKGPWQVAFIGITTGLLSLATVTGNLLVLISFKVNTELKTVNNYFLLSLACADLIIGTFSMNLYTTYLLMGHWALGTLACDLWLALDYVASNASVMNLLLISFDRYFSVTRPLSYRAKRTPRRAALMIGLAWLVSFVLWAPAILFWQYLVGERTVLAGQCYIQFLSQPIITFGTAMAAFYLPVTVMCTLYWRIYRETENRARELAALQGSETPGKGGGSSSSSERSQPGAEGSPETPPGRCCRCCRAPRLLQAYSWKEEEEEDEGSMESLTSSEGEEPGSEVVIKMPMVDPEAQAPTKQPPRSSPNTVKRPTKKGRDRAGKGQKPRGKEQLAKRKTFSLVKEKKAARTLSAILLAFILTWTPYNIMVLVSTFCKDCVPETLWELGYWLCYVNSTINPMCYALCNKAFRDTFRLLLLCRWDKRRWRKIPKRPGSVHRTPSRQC
Experiment: muscarinic FLIPR assay: intracellular calcium in CHOnfat/hM1 cells, potentiation of EC20 acetylcholine
Type: cell-based
Settings: CHOnfat/hM1 cells, FLIPR, EC20 acetylcholine (3 nM final)
How it was run: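 CHOnfat cells stably expressing human M1, Fluo-4AM-loaded, in HBSS with 20 mM HEPES, 2.5 mM probenecid, 1% BSA. Compounds preincubated 4 min (printed "4 mM") before an EC20 acetylcholine challenge (3 nM final). FLIPR intracellular Ca²⁺ signal compared with 3 nM acetylcholine alone to detect potentiation.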

SMILES | EC50 (Table 1, read-out: M1 Pot.) | also measured
N#CC1(c2ccncc2)CCN(Cc2cc3c(c4ccccc24)CN([C@H]2CCCC[C@@H]2O)C3=O)CC1 [Example 58, 1-({2-[(1S,2S)-2-hydroxycyclohexyl]-3-oxo-2,3-dihydro-1H-benzo[e]isoindol-5-yl}methyl)-4-pyridin-4-ylpiperidine-4-carbonitrile] | 21 nM | –
N#CC1(c2ccccc2Cl)CCN(Cc2cc3c(c4ccccc24)CN([C@H]2CCCC[C@@H]2O)C3=O)CC1 [Example 59, 4-(2-chlorophenyl)-1-({2-[(1S,2S)-2-hydroxycyclohexyl]-3-oxo-2,3-dihydro-1H-benzo[e]isoindol-5-yl}methyl)piperidine-4-carbonitrile] | 46 nM | –
N#CC1(c2ccccc2F)CCN(Cc2cc3c(c4ccccc24)CN([C@@H]2CCCC[C@@H]2O)C3=O)CC1 [Example 60, 4-(2-fluorophenyl)-1-({2-[(1R,2S)-2-hydroxycyclohexyl]-3-oxo-2,3-dihydro-1H-benzo[e]isoindol-5-yl}methyl)piperidine-4-carbonitrile] | 44 nM | –
Cc1ccccc1C1(C#N)CCN(Cc2cc3c(c4ccccc24)CN([C@@H]2CCCC[C@@H]2O)C3=O)CC1 [Example 61, 1-({2-[(1R,2S)-2-hydroxycyclohexyl]-3-oxo-2,3-dihydro-1H-benzo[e]isoindol-5-yl}methyl)-4-(2-methylphenyl)piperidine-4-carbonitrile] | 107 nM | –
N#CC1(c2ccccn2)CCN(Cc2cc3c(c4ccccc24)CN(c2ccccc2F)C3=O)CC1 [Example 62, 1-{[2-(2-fluorophenyl)-3-oxo-2,3-dihydro-1H-benzo[e]isoindol-5-yl]methyl}-4-pyridin-2-ylpiperidine-4-carbonitrile] | 650 nM | –
Cc1ccnc(C2(C#N)CCN(Cc3cc4c(c5ccccc35)CN(c3ccccc3F)C4=O)CC2)c1 [Example 63, 1-{[2-(2-fluorophenyl)-3-oxo-2,3-dihydro-1H-benzo[e]isoindol-5-yl]methyl}-4-(4-methylpyridin-2-yl)piperidine-4-carbonitrile] | 545 nM | –
Cc1ccnc(C2(C#N)CCN(Cc3cc4c(c5ccccc35)CN([C@H]3CCCC[C@@H]3O)C4=O)CC2)c1 [Example 64, 1-({2-[(1S,2S)-2-hydroxycyclohexyl]-3-oxo-2,3-dihydro-1H-benzo[e]isoindol-5-yl}methyl)-4-(4-methylpyridin-2-yl)piperidine-4-carbonitrile] | 9.7 nM | –
CS(=O)(=O)c1ccc(N2CCN(Cc3cc4c(c5ccccc35)CN([C@H]3CCCC[C@@H]3O)C4=O)CC2)cc1 [Example 68, 2-[(1S,2S)-2-hydroxycyclohexyl]-5-({4-[4-(methylsulfonyl)phenyl]piperazin-1-yl}methyl)-1,2-dihydro-3H-benzo[e]isoindol-3-one] | 47 nM | –
CC1c2c(cc(CN3CCN(c4ccccc4)CC3)c3ccccc23)C(=O)N1[C@@H]1CCCC[C@@H]1O (stereo partly drawn) [Example 73, 2-[(1R,2S)-2-hydroxycyclohexyl]-1-methyl-5-[(4-phenylpiperazin-1-yl)methyl]-1,2-dihydro-3H-benzo[e]isoindol-3-one] | 198 nM | –
O=C1c2cc(CN3CCN(c4ccncc4)CC3)c3ccccc3c2CN1[C@H]1CCCC[C@@H]1O [Example 77, 2-[(1S,2S)-2-hydroxycyclohexyl]-5-[(4-pyridin-4-ylpiperazin-1-yl)methyl]-1,2-dihydro-3H-benzo[e]isoindol-3-one] | 213 nM | –
Cn1cc(N2CCN(Cc3cc4c(c5ccccc35)CN([C@@H]3CCCC[C@H]3O)C4=O)CC2)cn1 [Example 81, 2-[(1R,2R)-2-hydroxycyclohexyl]-5-{[4-(1-methyl-1H-pyrazol-4-yl)piperazin-1-yl]methyl}-1,2-dihydro-3H-benzo[e]isoindol-3-one] | 496 nM | –
O=C1c2cc(CN3CCN(c4ccc5ncsc5c4)CC3)c3ccccc3c2CN1c1ccccc1F [Example 85, 5-{[4-(1,3-benzothiazol-6-yl)piperazin-1-yl]methyl}-2-(2-fluorophenyl)-1,2-dihydro-3H-benzo[e]isoindol-3-one] | 1140 nM | –
O=C1c2cc(CN3CCCCC3)c3cccnc3c2CN1[C@H]1CCCC[C@@H]1O [Example 86, 8-[(1S,2S)-2-hydroxycyclohexyl]-5-(piperidin-1-ylmethyl)-8,9-dihydro-7H-pyrrolo[3,4-h]quinolin-7-one] | – | EC50 (Table 2, read-out: M1 Pot.): 2900 nM
CC1CCN(Cc2cc3c(c4ncccc24)CN([C@H]2CCCC[C@@H]2O)C3=O)CC1 [Example 87, 8-[(1S,2S)-2-hydroxycyclohexyl]-5-[(4-methylpiperidin-1-yl)methyl]-8,9-dihydro-1H-pyrrolo[3,4-h]quinolin-7-one] | – | EC50 (M1 Pot., Table 2): 200 nM

Second part, led by results:

EC50 (Table 1, read-out: M1 Pot.) | SMILES | also measured
1370 nM | O=C1c2cc(CN3CCc4ccccc4C3c3ccncc3)c3ccccc3c2CN1c1ccccc1F (centres unmarked) [Example 65, 2-(2-fluorophenyl)-5-{[1-(pyridin-4-yl)-3,4-dihydroisoquinolin-2(1H)-yl]methyl}-1,2-dihydro-3H-benzo[e]isoindol-3-one] | –
273 nM | Cn1cc(N2CCN(Cc3cc4c(c5ccccc35)CN(c3ccccc3F)C4=O)CC2)cn1 [Example 66, 2-(2-fluorophenyl)-5-{[4-(1-methyl-1H-pyrazol-4-yl)piperazin-1-yl]methyl}-1,2-dihydro-3H-benzo[e]isoindol-3-one] | –
67 nM | O=C1c2cc(CN3CCN(c4ccc(F)cc4)CC3)c3ccccc3c2CN1[C@H]1CCCC[C@@H]1O [Example 67, 5-{[4-(4-fluorophenyl)piperazin-1-yl]methyl}-2-[(1S,2S)-2-hydroxycyclohexyl]-1,2-dihydro-3H-benzo[e]isoindol-3-one] | –
49 nM | COc1ccc(N2CCN(Cc3cc4c(c5ccccc35)CN([C@H]3CCCC[C@@H]3O)C4=O)CC2)cc1 [Example 69, 2-[(1S,2S)-2-hydroxycyclohexyl]-5-{[4-(4-methoxyphenyl)piperazin-1-yl]methyl}-1,2-dihydro-3H-benzo[e]isoindol-3-one] | –
150 nM | COc1ccc(N2CCN(Cc3cc4c(c5ccccc35)CN([C@H]3CCCC[C@@H]3O)C4=O)C(C)C2)cc1 (stereo partly drawn) [Example 70, 2-[(1S,2S)-2-hydroxycyclohexyl] 5-{[4-(4-methoxyphenyl)-2-methylpiperazin-1-yl]methyl}-1,2-dihydro-3H-benzo[e]isoindol-3-one] | –
315 nM | COc1ccc(N2CC3CC2CN3Cc2cc3c(c4ccccc24)CN([C@H]2CCCC[C@@H]2O)C3=O)cc1 (some centres unmarked) [Example 71] | –
72 nM | O=C1c2cc(CN3CCN(c4ccccc4)CC3)c3ccccc3c2CN1[C@H]1CCCC[C@@H]1O [Example 72, 2-[(1S,2S)-2-hydroxycyclohexyl]-5-[(4-phenylpiperazin-1-yl)methyl]-1,2-dihydro-3H-benzo[e]isoindol-3-one] | –
46 nM | O=C1c2cc(CN3CCN(c4ccccn4)CC3)c3ccccc3c2CN1[C@H]1CCCC[C@@H]1O [Example 74, 2-[(1S,2S)-2-hydroxycyclohexyl]-5-[(4-pyridin-2-ylpiperazin-1-yl)methyl]-1,2-dihydro-3H-benzo[e]isoindol-3-one] | –
78 nM | O=C1c2cc(CN3CCN(c4ccccn4)CC3)c3ccccc3c2CN1c1ccccc1F [Example 75, 2-(2-fluorophenyl)-5-{[4-(pyridin-2-yl)piperazin-1-yl]methyl}-1,2-dihydro-3H-benzo[e]isoindol-3-one] | –
37 nM | O=C1c2cc(CN3CCN(c4cccnc4)CC3)c3ccccc3c2CN1[C@H]1CCCC[C@@H]1O [Example 76, 2-[(1S,2S)-2-hydroxycyclohexyl]-5-[(4-pyridin-3-ylpiperazin-1-yl)methyl]-1,2-dihydro-3H-benzo[e]isoindol-3-one] | –
370 nM | CC1CN(Cc2cc3c(c4ccccc24)CN([C@H]2CCCC[C@@H]2O)C3=O)CCN1c1ccccc1 (stereo partly drawn) [Example 78, 2-[(1S,2S)-2-hydroxycyclohexyl]-5-[(3-methyl-4-phenylpiperazin-1-yl)methyl]-1,2-dihydro-3H-benzo[e]isoindol-3-one] | –
1620 nM | Cn1cc(N2CCN(Cc3cc4c(c5ccccc35)CN([C@H]3CCCC[C@@H]3O)C4=O)CC2)cn1 [Example 80, 2-[(1S,2S)-2-hydroxycyclohexyl]-5-{[4-(1-methyl-1H-pyrazol-4-yl)piperazin-1-yl]methyl}-1,2-dihydro-3H-benzo[e]isoindol-3-one] | –
1590 nM | Cn1cc(N2CCN(Cc3cc4c(c5ccccc35)CN(C3CCOCC3)C4=O)CC2)cn1 [Example 82, 5-{[4-(1-methyl-1H-pyrazol-4-yl)piperazin-1-yl]methyl}-2-(tetrahydro-2H-pyran-4-yl)-1,2-dihydro-3H-benzo[e]isoindol-3-one] | –
3870 nM | Cn1cc(N2CCN(Cc3cc4c(c5ccccc35)CN(C3CCCOC3)C4=O)CC2)cn1 (centres unmarked) [Example 83, 5-{[4-(1-methyl-1H-pyrazol-4-yl)piperazin-1-yl]methyl}-2-(tetrahydro-2H-pyran-3-yl)-1,2-dihydro-3H-benzo[e]isoindol-3-one] | –
3270 nM | O=C1c2cc(CN3CCN(c4cc5ccccc5cn4)CC3)c3ccccc3c2CN1c1ccccc1F [Example 84, 2-(2-fluorophenyl)-5-[(4-isoquinolin-3-ylpiperazin-1-yl)methyl]-1,2-dihydro-3H-benzo[e]isoindol-3-one] | –
